Reference: patent US11525063B2, “Fluorescent oxygen sensing ink” (The Board of Trustees of Western Michigan University, priority 2018, dated 2022)
Like-named read-outs stand apart in the source and are kept apart here.

What was measured:
[1] = test system: L-929 mouse fibroblast cells
Method: (§1) All samples were ≤0.5 mm thick and prepared as 8 mm-diameter discs (surface area of 0.50 cm^2). […] An aliquot was counted using trypan blue, and then cells were re-suspended in complete growth medium at a density of 1×10^5 cells/ml. […] After 24 h, the culture medium was removed and replaced with 100 μl of extractant. Some wells received sodium dodecyl sulfate (0 to 400 μM in EMEM; positive controls), low-density polyethylene extract (1.25 cm^2 LDPE/ml EMEM; negative control), or complete growth medium alone. Cells were then cultured for an additional 24 h. Images (mag. of 100× and 200×) of cell cultures were recorded by photo microscopy using a Olympus CK40 inverted microscope and Insight2 SPOT camera (Diagnostic Imaging) and the number of attached and dead cells were manually counted at a later time using ImageJ (NIH). […] Subsequently, cells in culture plates were washed once with Hank's Balanced Salt Solution and metabolic activity was measured by incubating cells with 100 μl of WST-1 cell proliferation reagent (Roche Diagnostics) for up to 4 h at 37° C. To determine cytotoxicity, absorbance of the medium in wells was measured at 450 nm after 2 and 4 h using a microplate reader (PHERAstar) and was corrected using absorbance measurements at 630 nm and using blanks. To check for mycoplasma contamination of the cultures, medium was saved and tested using the luminescent MycoAlert Plus mycoplasma detection kit (Lonza).
Absorbance is proportional to the amount of formazan product generated by the metabolic activity of cells. Thus, lower absorbance values correlate with increased cytotoxicity.
An aliquot was counted using trypan blue, and then cells were re-suspended in complete growth medium at a density of 1×10^5 cells/ml. […] After 24 h, the culture medium was removed and replaced with 100 μl of extractant. Some wells received sodium dodecyl sulfate (SDS; 0 to 400 μM in EMEM; positive controls), low-density polyethylene extract (1.25 cm^2 LDPE/ml EMEM; negative control) or complete growth medium alone. Cells were then cultured for an additional 24 h. Subsequently, cells in culture plates were washed once with HBSS and metabolic activity was measured by incubating cells with 100 μl of WST-1 cell proliferation reagent (Roche Diagnostics) for up to 4 h at 37° C.
To determine cytotoxicity, absorbance of the medium in wells was measured at 450 nm after 2 and/or 4 h using a microplate reader (PHERAstar) and was corrected using absorbance measurements at 630 nm and using blanks. Absorbance levels are proportional to the metabolic activity of cells and therefore inversely related to cytotoxicity. To check for mycoplasma contamination of the cultures, medium was saved and tested using the luminescent MycoAlert Plus mycoplasma detection kit (Lonza). Statistical significance was determined using analysis of variance and Tukey-Kramer post-test.

[2] = Effect of sterilization process (H2O2 vapor treatment) on emission peak; format: physicochemical
Method: The fluorescent properties of two materials being encapsulated in both poly-styrene and PDMS (polydimethylsiloxane) polymer binder materials were measured to determine the suitability of the materials in an oxygen sensing system. […] Then 20 μL of mixed solution was cast onto filter paper to form a patch with a diameter of 8 mm. The patch was left in the nitrogen chamber for drying for 24-hours before testing. The PDMS encapsulated sensing patches were fabricated by firstly depositing dye solution onto the filter paper. PDMS was then added to the filter paper after the removal of the solvent. The same amount of dye was used for all samples. The fluorescence spectrum was measured using a UV spectrophotometer. A zero oxygen solution was prepared by nitrogen bubbling a 0.15 mol/L Na2SO3 solution for 30 minutes.

[3] = test system: L-929 mouse fibroblast cells; conditions: 150 μM SDS in EMEM, 24 h
Method: as §1, with “To check for mycoplasma contamination of the cultures, medium was saved and tested using the luminescent MycoAlert Plus mycoplasma detection kit (Lonza).” left out

[Cl-].[Cl-].[Ru+2].c1ccc(-c2ccnc3c2ccc2c(-c4ccccc4)ccnc23)cc1.c1ccc(-c2ccnc3c2ccc2c(-c4ccccc4)ccnc23)cc1.c1ccc(-c2ccnc3c2ccc2c(-c4ccccc4)ccnc23)cc1 [Ru(dpp)3Cl2, Tris(4,7-diphenyl-1,10-phenanthroline) ruthenium II dichloride]
cytotoxicity of extract (conclusion in words) ([1]; cells treated 24 h with extract of Sterrad-sterilized sample): considerable cytotoxicity | cytotoxicity of extract (conclusion in words) ([1]; cells treated 24 h with extract of Sterrad-sterilized sample, listed as ruthenium alone on paper): cytotoxic | Mean absorbance (corrected, 450 nm) ([1]; cells treated 24 h with extract of Sterrad-sterilized sample, lower absorbance = more cytotoxic): 0.318 | metabolic activity relative to cells cultured in EMEM alone ([1]; cells treated 24 h with extract, below 70% considered cytotoxic): 38.4% | stability to H2O2 vapor treatment [2]: more vulnerable | Emission peak After Sterilization ([2]; after H2O2 vapor treatment): No emission peak detected | Emission peak Before Sterilization ([2]; before H2O2 vapor treatment): Emission peak detected

CCCCCCCCCCCCOS(=O)(=O)[O-].[Na+] [SDS, sodium dodecyl sulfate, reference compound]
Morphology score [3]: 2 | Mean absorption reading ([1]; 300 μM SDS in EMEM, 24 h): 0 | Concentrations of SDS that were cytotoxic ([1]; mouse): above 200 μM
